The record followed here is patent publication US20050267182A1, “Urea derivatives as FLT-3 modulators” (Ambit Biosciences Corporation, priority 2003, published 2005).

In one test the target is T1, FLT3 (Homo sapiens, UniProt P36888).
T1 construct: FLT3(DKIN); made in house
T1 sequence (P36888 610-943 limits assumed): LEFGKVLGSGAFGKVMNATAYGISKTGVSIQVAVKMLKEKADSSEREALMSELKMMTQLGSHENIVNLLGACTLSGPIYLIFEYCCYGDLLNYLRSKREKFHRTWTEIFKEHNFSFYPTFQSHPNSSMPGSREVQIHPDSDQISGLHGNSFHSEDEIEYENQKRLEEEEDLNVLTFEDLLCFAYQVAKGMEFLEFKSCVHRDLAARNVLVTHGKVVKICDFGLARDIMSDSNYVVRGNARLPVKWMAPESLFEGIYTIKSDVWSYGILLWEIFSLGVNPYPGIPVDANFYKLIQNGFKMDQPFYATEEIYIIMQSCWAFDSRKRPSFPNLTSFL
The test can be described thus: Binding constant (Kd) measurement, phage-displayed kinase competition binding assay. As to conditions: for Binding Assay: FLT3(DKIN): FLT3(DKIN) construct; for Binding Assay: FLT3(JMminus): FLT3(JMminus) construct. An excerpt: Binding Constant (Kd) Measurements for Small-Molecule-Kinase Interactions
The term “ND” represents non-determined values.

The next test concerns CS0002. The test can be described thus: Cell Assay: CS0002. Format: cell-based. As to conditions: cell assay code CS0002.
Another test has as its system MV4,11 cells. Description: FLT3 assay using MV4,11 cells (cellular proliferation, MTS). As to conditions: cell assay code CS0001. Format: cell-based, human. The essentials:
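MV4,11 AML cells, […] switch to DMEM/10% FBS overnight, plated at 10,000 cells/well and exposed to serially diluted compounds in duplicate for 3 days at 37° C., 5% CO2. Proliferation read by MTS added for 2 h.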

Where only a bound is given, the exact number is not on record here.

For orientation: IC50 means the midpoint of a concentration-inhibition curve. Read a low IC50 as greater potency.

On to `COc1cc(OC)nc(Nc2cccc(C(=O)Nc3ccc(NC(=O)Nc4cc(C(C)(C)C)on4)cc3)c2)n1` [Compound N49], for which the “Binding Assay: FLT3(DKIN)” value at FLT3 is reported as “+ + + +”. Also, in the test on CS0002, the “Cell Assay: CS0002:IC50” value is given as “+ + +”. The “Cell Assay: CS0001:IC50” value in the test on MV4,11 cells is “+ + + +”.
With `CC(C)(C)c1cc(NC(=O)Nc2ccc(Nc3cc(N)nc(N)n3)cc2)no1` [Compound O7], the “Binding Assay: FLT3(JMminus)” value on FLT3 is given as “+ + + +”. Further, the IC50 in the test on CS0002 is over 10 µM. Also, the “Cell Assay: CS0001:IC50” value in the test on MV4,11 cells is reported as “+ + + +”.
In the case of `CC(C)(C)c1cc(NC(=O)Nc2ccc(NC(=O)c3ccc(Oc4ccnc(C(=O)O)c4)cc3)cc2)no1` [Compound N166], the “Binding Assay: FLT3(JMminus)” value at FLT3 is reported as “+ + + +”. Besides, in the test on CS0002, the “Cell Assay: CS0002:IC50” value is “+ +”. Further, the “Cell Assay: CS0001:IC50” value with MV4,11 cells is “+ + +”.
Consider `COC(=O)c1cccc(Sc2ncc(NC(=O)Nc3cc(C(C)(C)C)on3)s2)c1` [Compound O8], for which the “Binding Assay: FLT3(JMminus)” value at FLT3 is “+ + + +”. Further, the “Cell Assay: CS0002:IC50” value in the test on CS0002 is given as “+ +”. In the test with MV4,11 cells, the “Cell Assay: CS0001:IC50” value is on record as “+ + +”.
In the case of `CC(C)(C)c1cc(NC(=O)Nc2ccc(NC(=O)c3ccccc3Cl)cc2)no1` [Compound N23], at FLT3, the “Binding Assay: FLT3(DKIN)” value is reported as “+ + + +”. Also, in the test with CS0002, the “Cell Assay: CS0002:IC50” value is “+ +”. In addition, the “Cell Assay: CS0001:IC50” value in the test with MV4,11 cells was “+ + + +”.
Consider `CC(C)(C)c1cc(NC(=O)Nc2ccc(NC(=O)c3cccnc3C(=O)O)cc2)no1` [Compound N165], for which, at FLT3, the “Binding Assay: FLT3(JMminus)” value is listed as “+ + +”. In addition, the IC50 in the test on CS0002 is over 10 µM. Moreover, the “Cell Assay: CS0001:IC50” value with MV4,11 cells was “+ + + +”.
Consider `CC(C)(C)c1cnc(CSc2cnc(NC(=O)Nc3ccon3)s2)o1`, for which, at FLT3, the “Binding Assay: FLT3(JMminus)” value was “+ + +”. Besides, the “Cell Assay: CS0002:IC50” value in the test with CS0002 was “+ +”. Besides, the “Cell Assay: CS0001:IC50” value in the test on MV4,11 cells is listed as “+ + +”.
For `CC(C)c1sc(Cl)nc1C(=O)Nc1ccc(NC(=O)Nc2cc(C(C)(C)C)on2)cc1` [Compound N75], the “Binding Assay: FLT3(JMminus)” value at FLT3 is on record as “+ + + +”. In addition, in the test on CS0002, the “Cell Assay: CS0002:IC50” value is on record as “+ +”. This molecule gave an IC50 in the test with MV4,11 cells (Homo sapiens, MV4-11) of over 10 µM.
In the case of `Cc1nc(-c2ccccc2)sc1C(=O)Nc1ccc(NC(=O)Nc2cc(C(C)(C)C)on2)cc1` [Compound N181], on FLT3, the “Binding Assay: FLT3(JMminus)” value was “+ + + +”. Besides, the “Cell Assay: CS0002:IC50” value in the test on CS0002 is “+ +”. Moreover, the “Cell Assay: CS0001:IC50” value in the test on MV4,11 cells is listed as “+ + + +”.
With `COc1cc(OC)nc(N(C)c2cccc(C(=O)Nc3ccc(NC(=O)Nc4ccon4)cc3)c2)n1` [Compound N53], the “Binding Assay: FLT3(DKIN)” value at FLT3 was “+ + + +”. In the test on CS0002, the “Cell Assay: CS0002:IC50” value is reported as “+ +”. In the test with MV4,11 cells, the “Cell Assay: CS0001:IC50” value is “+ + +”.
For the molecule `CC(C)(C)c1cc(NC(=O)Nc2ccc(NC(=O)c3nocc3C(C)(C)C)cc2)no1` [Compound N82], on FLT3, the “Binding Assay: FLT3(JMminus)” value was “+ + +”. Besides, in the test on CS0002, the “Cell Assay: CS0002:IC50” value is given as “+ +”. Besides, the “Cell Assay: CS0001:IC50” value in the test on MV4,11 cells is on record as “+ + +”.
`CC(C)(C)c1cc(NC(=O)Nc2ccc(OCc3ccccc3)cc2)on1` [Compound G30]: on FLT3, the “Binding Assay: FLT3(DKIN)” value is given as “+ + + +”. Besides, the “Cell Assay: CS0002:IC50” value with CS0002 was “+ +”. In the test with MV4,11 cells, the “Cell Assay: CS0001:IC50” value is recorded as “+ + + +”.
For the molecule `COc1cc(OC)nc(Sc2ccccc2C(=O)Nc2ccc(NC(=O)Nc3cc(C(C)(C)C)on3)cc2)n1` [Compound N47], the “Binding Assay: FLT3(DKIN)” value on FLT3 is recorded as “+ + + +”. Besides, the “Cell Assay: CS0002:IC50” value with CS0002 is “+ + +”. In addition, the “Cell Assay: CS0001:IC50” value in the test with MV4,11 cells is recorded as “+ + +”.
With `Cn1nc(C(F)(F)F)c2cc(C(=O)Nc3ccc(NC(=O)Nc4cc(C(C)(C)C)on4)cc3)sc21` [Compound N64], on FLT3, the “Binding Assay: FLT3(DKIN)” value is reported as “+ + + +”. In the test with CS0002, this molecule displayed an IC50 of over 10 µM. The “Cell Assay: CS0001:IC50” value with MV4,11 cells was “+ + +”.
In the case of `CC(C)(C)c1cc(NC(=O)Nc2ccc(NC(=O)c3cc([N+](=O)[O-])ccn3)cc2)no1` [Compound N7], the “Binding Assay: FLT3(DKIN)” value on FLT3 was “+ + + +”. Further, the IC50 with CS0002 is over 10 µM.
Regarding `CC(C)(C)c1cc(NC(=O)Nc2ccc(NC(=O)c3c[nH]c(=O)nc3-c3ccncc3)cc2)no1` [Compound N19], the “Binding Assay: FLT3(DKIN)” value on FLT3 was “+ +”. The “Cell Assay: CS0001:IC50” value in the test with MV4,11 cells is “+ +”.
